Legend:
Experiment in all cases: KINOMEscan
CSNK2A2 = target: T1, CSNK2A2 (Homo sapiens, UniProt P19784); format: binding; details: read-out: Percent Control
T1 construct: purchased Eurofins DiscoverX KINOMEscan (scanMAX 468)

SRPK2 = target: T2, SRPK2 (Homo sapiens, UniProt P78362); format: binding; details: read-out: Percent Control
T2 construct: purchased Eurofins DiscoverX KINOMEscan (scanMAX 468)

PFTK1 = target: T3, PFTK1 (Homo sapiens, UniProt O94921); format: binding; details: read-out: Percent Control
T3 construct: purchased Eurofins DiscoverX KINOMEscan (scanMAX 468)

ERK4 = target: T4, ERK4 (Homo sapiens, UniProt P31152); format: binding; details: read-out: Percent Control
T4 construct: purchased Eurofins DiscoverX KINOMEscan (scanMAX 468)

CAMK2A = target: T5, CAMK2A (Homo sapiens, UniProt Q9UQM7); format: binding; details: read-out: Percent Control
T5 construct: purchased Eurofins DiscoverX KINOMEscan (scanMAX 468)

KIT(D816V) = target: T6, KIT(D816V) (Homo sapiens, UniProt P10721, D816V); format: binding; details: read-out: Percent Control
T6 construct: purchased Eurofins DiscoverX KINOMEscan (scanMAX 468)

EGFR(L858R,T790M) = target: T7, EGFR(L858R,T790M) (Homo sapiens, UniProt P00533, L858R/T790M); format: binding; details: read-out: Percent Control
T7 construct: purchased Eurofins DiscoverX KINOMEscan (scanMAX 468)

ANKK1 = target: T8, ANKK1 (Homo sapiens, UniProt Q8NFD2); format: binding; details: read-out: Percent Control
T8 construct: purchased Eurofins DiscoverX KINOMEscan (scanMAX 468)

PFCDPK1(P.falciparum) = target: T9, PFCDPK1(P.falciparum) (Plasmodium falciparum, UniProt P62344); format: binding; details: read-out: Percent Control
T9 construct: purchased Eurofins DiscoverX KINOMEscan (scanMAX 468)

ITK = target: T10, ITK (Homo sapiens, UniProt Q08881); format: binding; details: read-out: Percent Control
T10 construct: purchased Eurofins DiscoverX KINOMEscan (scanMAX 468)

FLT3(N841I) = target: T11, FLT3(N841I) (Homo sapiens, UniProt P36888, N841I); format: binding; details: read-out: Percent Control
T11 construct: purchased Eurofins DiscoverX KINOMEscan (scanMAX 468)

ACVR2B = target: T12, ACVR2B (Homo sapiens, UniProt Q13705); format: binding; details: read-out: Percent Control
T12 construct: purchased Eurofins DiscoverX KINOMEscan (scanMAX 468)

ERBB3 = target: T13, ERBB3 (Homo sapiens, UniProt P21860); format: binding; details: read-out: Percent Control
T13 construct: purchased Eurofins DiscoverX KINOMEscan (scanMAX 468)

VRK2 = target: T14, VRK2 (Homo sapiens, UniProt Q86Y07); format: binding; details: read-out: Percent Control
T14 construct: purchased Eurofins DiscoverX KINOMEscan (scanMAX 468)

TGFBR2 = target: T15, TGFBR2 (Homo sapiens, UniProt P37173); format: binding; details: read-out: Percent Control
T15 construct: purchased Eurofins DiscoverX KINOMEscan (scanMAX 468)

PIP5K2C = target: T16, PIP5K2C (Homo sapiens, UniProt Q8TBX8); format: binding; details: read-out: Percent Control
T16 construct: purchased Eurofins DiscoverX KINOMEscan (scanMAX 468)

HCK = target: T17, HCK (Homo sapiens, UniProt P08631); format: binding; details: read-out: Percent Control
T17 construct: purchased Eurofins DiscoverX KINOMEscan (scanMAX 468)

BMPR1B = target: T18, BMPR1B (Homo sapiens, UniProt O00238); format: binding; details: read-out: Percent Control
T18 construct: purchased Eurofins DiscoverX KINOMEscan (scanMAX 468)

CDKL5 = target: T19, CDKL5 (Homo sapiens, UniProt O76039); format: binding; details: read-out: Percent Control
T19 construct: purchased Eurofins DiscoverX KINOMEscan (scanMAX 468)

DDR1 = target: T20, DDR1 (Homo sapiens, UniProt Q08345); format: binding; details: read-out: Percent Control
T20 construct: purchased Eurofins DiscoverX KINOMEscan (scanMAX 468)

ERBB4 = target: T21, ERBB4 (Homo sapiens, UniProt Q15303); format: binding; details: read-out: Percent Control
T21 construct: purchased Eurofins DiscoverX KINOMEscan (scanMAX 468)

GRK7 = target: T22, GRK7 (Homo sapiens, UniProt Q8WTQ7); format: binding; details: read-out: Percent Control
T22 construct: purchased Eurofins DiscoverX KINOMEscan (scanMAX 468)

SIK2 = target: T23, SIK2 (Homo sapiens, UniProt Q9H0K1); format: binding; details: read-out: Percent Control
T23 construct: purchased Eurofins DiscoverX KINOMEscan (scanMAX 468)

CAMK1B = target: T24, CAMK1B (Homo sapiens, UniProt Q6P2M8); format: binding; details: read-out: Percent Control
T24 construct: purchased Eurofins DiscoverX KINOMEscan (scanMAX 468)

IRAK1 = target: T25, IRAK1 (Homo sapiens, UniProt P51617); format: binding; details: read-out: Percent Control
T25 construct: purchased Eurofins DiscoverX KINOMEscan (scanMAX 468)

NEK10 = target: T26, NEK10 (Homo sapiens, UniProt Q6ZWH5); format: binding; details: read-out: Percent Control
T26 construct: purchased Eurofins DiscoverX KINOMEscan (scanMAX 468)

EPHA7 = target: T27, EPHA7 (Homo sapiens, UniProt Q15375); format: binding; details: read-out: Percent Control
T27 construct: purchased Eurofins DiscoverX KINOMEscan (scanMAX 468)

SBK1 = target: T28, SBK1 (Homo sapiens, UniProt Q52WX2); format: binding; details: read-out: Percent Control
T28 construct: purchased Eurofins DiscoverX KINOMEscan (scanMAX 468)

VPS34 = target: T29, VPS34 (Homo sapiens, UniProt Q8NEB9); format: binding; details: read-out: Percent Control
T29 construct: purchased Eurofins DiscoverX KINOMEscan (scanMAX 468)

AURKA = target: T30, AURKA (Homo sapiens, UniProt O14965); format: binding; details: read-out: Percent Control
T30 construct: purchased Eurofins DiscoverX KINOMEscan (scanMAX 468)

CDK9 = target: T31, CDK9 (Homo sapiens, UniProt P50750); format: binding; details: read-out: Percent Control
T31 construct: purchased Eurofins DiscoverX KINOMEscan (scanMAX 468)

EGFR(L747-T751del,Sins) = format: binding, human; details: 1 μM
LTK = target: T32, LTK (Homo sapiens, UniProt P29376); format: binding; details: read-out: Percent Control
T32 construct: purchased Eurofins DiscoverX KINOMEscan (scanMAX 468)

ULK3 = target: T33, ULK3 (Homo sapiens, UniProt Q6PHR2); format: binding; details: read-out: Percent Control
T33 construct: purchased Eurofins DiscoverX KINOMEscan (scanMAX 468)

PIP5K1C = target: T34, PIP5K1C (Homo sapiens, UniProt O60331); format: binding; details: read-out: Percent Control
T34 construct: purchased Eurofins DiscoverX KINOMEscan (scanMAX 468)

MEK1 = target: T35, MEK1 (Homo sapiens, UniProt Q02750); format: binding; details: read-out: Percent Control
T35 construct: purchased Eurofins DiscoverX KINOMEscan (scanMAX 468)

EPHA4 = target: T36, EPHA4 (Homo sapiens, UniProt P54764); format: binding; details: read-out: Percent Control
T36 construct: purchased Eurofins DiscoverX KINOMEscan (scanMAX 468)

GSK3A = target: T37, GSK3A (Homo sapiens, UniProt P49840); format: binding; details: read-out: Percent Control
T37 construct: purchased Eurofins DiscoverX KINOMEscan (scanMAX 468)

DCAMKL3 = target: T38, DCAMKL3 (Homo sapiens, UniProt Q9C098); format: binding; details: read-out: Percent Control
T38 construct: purchased Eurofins DiscoverX KINOMEscan (scanMAX 468)

[1] = target: T39, RSK2(Kin.Dom.2-C-terminal) (Homo sapiens, UniProt P51812); format: binding; details: read-out: Percent Control
T39 construct: RSK2(Kin.Dom.2-C-terminal); purchased Eurofins DiscoverX KINOMEscan (scanMAX 468)

EGFR(L858R) = target: T40, EGFR(L858R) (Homo sapiens, UniProt P00533, L858R); format: binding; details: read-out: Percent Control
T40 construct: purchased Eurofins DiscoverX KINOMEscan (scanMAX 468)

MAP4K4 = target: T41, MAP4K4 (Homo sapiens, UniProt O95819); format: binding; details: read-out: Percent Control
T41 construct: purchased Eurofins DiscoverX KINOMEscan (scanMAX 468)

FLT3 = target: T42, FLT3 (Homo sapiens, UniProt P36888); format: binding; details: read-out: Percent Control
T42 construct: purchased Eurofins DiscoverX KINOMEscan (scanMAX 468)

T22 sequence (Q8WTQ7 whole entry): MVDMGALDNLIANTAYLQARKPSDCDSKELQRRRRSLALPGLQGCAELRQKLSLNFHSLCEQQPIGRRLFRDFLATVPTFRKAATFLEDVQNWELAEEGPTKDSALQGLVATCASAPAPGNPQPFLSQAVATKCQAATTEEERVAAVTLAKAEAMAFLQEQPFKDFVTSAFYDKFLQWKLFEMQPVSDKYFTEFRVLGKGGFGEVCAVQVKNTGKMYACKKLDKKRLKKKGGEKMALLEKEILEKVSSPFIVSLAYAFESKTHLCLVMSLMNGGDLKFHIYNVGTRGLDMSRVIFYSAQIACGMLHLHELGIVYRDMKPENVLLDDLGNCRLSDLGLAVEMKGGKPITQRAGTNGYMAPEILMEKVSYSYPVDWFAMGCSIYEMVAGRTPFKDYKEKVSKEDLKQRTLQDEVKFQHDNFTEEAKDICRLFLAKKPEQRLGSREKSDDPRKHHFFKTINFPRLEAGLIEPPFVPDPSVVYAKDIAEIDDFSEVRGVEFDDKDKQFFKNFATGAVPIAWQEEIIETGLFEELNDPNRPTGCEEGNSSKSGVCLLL
T41 sequence (O95819 whole entry): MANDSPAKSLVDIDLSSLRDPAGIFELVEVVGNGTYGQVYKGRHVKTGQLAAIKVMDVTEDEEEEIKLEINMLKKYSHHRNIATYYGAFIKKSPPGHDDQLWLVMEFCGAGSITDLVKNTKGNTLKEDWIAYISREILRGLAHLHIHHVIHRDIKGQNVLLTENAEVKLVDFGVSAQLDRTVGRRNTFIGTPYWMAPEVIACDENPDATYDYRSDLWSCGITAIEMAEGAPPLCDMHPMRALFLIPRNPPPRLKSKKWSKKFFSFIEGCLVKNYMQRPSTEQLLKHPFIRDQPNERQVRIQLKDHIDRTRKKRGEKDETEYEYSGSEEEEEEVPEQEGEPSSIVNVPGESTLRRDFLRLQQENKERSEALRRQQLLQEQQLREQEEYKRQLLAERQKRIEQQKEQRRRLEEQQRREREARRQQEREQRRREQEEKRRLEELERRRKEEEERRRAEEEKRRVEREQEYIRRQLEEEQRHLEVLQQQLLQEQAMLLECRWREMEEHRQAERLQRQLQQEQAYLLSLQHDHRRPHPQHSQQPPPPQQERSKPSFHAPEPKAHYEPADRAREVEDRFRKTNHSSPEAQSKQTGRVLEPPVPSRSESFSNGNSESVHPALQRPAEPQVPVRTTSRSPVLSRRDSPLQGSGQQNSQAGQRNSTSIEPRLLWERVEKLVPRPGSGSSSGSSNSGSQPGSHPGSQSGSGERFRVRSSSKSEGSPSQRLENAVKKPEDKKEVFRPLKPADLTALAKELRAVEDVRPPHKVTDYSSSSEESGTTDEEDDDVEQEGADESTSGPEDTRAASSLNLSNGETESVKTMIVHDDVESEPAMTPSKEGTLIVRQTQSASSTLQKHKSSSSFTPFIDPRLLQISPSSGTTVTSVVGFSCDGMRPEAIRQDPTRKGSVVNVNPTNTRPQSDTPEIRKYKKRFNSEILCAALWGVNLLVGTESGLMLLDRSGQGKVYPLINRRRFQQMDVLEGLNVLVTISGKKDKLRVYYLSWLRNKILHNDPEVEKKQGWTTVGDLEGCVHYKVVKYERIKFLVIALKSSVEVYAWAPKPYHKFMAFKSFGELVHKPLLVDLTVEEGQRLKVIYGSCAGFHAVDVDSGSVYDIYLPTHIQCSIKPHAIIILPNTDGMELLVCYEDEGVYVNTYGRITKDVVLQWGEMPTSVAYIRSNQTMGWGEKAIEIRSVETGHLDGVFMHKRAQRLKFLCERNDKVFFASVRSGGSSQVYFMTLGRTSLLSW
T1 sequence (P19784 whole entry): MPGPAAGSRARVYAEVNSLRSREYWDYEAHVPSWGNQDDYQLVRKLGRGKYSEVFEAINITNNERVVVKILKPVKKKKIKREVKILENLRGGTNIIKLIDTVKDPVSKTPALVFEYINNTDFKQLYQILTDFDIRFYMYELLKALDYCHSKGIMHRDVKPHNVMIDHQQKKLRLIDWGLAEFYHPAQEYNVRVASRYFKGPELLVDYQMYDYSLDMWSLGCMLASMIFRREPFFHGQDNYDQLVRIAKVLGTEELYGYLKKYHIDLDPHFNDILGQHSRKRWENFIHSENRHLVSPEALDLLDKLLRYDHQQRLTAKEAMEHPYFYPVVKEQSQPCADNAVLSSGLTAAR
T10 sequence (Q08881 whole entry): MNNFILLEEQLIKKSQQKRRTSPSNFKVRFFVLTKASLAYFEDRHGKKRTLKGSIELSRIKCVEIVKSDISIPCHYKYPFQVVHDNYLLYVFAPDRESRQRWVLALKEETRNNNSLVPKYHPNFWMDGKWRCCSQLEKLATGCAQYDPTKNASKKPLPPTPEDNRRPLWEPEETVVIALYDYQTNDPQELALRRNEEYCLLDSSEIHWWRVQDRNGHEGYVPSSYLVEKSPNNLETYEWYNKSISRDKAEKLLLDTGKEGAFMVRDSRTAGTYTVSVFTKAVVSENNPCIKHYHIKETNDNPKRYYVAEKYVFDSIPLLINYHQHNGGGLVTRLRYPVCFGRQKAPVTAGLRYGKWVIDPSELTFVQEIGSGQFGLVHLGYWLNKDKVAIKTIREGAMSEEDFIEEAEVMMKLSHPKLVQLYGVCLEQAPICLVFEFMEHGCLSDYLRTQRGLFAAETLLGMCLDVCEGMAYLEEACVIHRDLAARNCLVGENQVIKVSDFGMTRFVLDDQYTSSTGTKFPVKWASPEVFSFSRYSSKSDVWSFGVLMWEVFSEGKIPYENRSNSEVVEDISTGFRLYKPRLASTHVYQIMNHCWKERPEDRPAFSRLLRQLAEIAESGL
T31 sequence (P50750 whole entry): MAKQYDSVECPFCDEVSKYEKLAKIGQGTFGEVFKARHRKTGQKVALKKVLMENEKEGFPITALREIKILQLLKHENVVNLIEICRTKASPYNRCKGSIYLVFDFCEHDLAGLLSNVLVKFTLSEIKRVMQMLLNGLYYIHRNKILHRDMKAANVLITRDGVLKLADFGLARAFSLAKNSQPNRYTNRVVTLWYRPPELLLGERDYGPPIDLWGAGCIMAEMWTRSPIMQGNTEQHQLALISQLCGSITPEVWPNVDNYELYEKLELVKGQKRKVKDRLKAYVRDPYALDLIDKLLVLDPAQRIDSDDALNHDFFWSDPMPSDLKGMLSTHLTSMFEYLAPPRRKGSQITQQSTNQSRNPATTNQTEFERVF
T5 sequence (Q9UQM7 whole entry): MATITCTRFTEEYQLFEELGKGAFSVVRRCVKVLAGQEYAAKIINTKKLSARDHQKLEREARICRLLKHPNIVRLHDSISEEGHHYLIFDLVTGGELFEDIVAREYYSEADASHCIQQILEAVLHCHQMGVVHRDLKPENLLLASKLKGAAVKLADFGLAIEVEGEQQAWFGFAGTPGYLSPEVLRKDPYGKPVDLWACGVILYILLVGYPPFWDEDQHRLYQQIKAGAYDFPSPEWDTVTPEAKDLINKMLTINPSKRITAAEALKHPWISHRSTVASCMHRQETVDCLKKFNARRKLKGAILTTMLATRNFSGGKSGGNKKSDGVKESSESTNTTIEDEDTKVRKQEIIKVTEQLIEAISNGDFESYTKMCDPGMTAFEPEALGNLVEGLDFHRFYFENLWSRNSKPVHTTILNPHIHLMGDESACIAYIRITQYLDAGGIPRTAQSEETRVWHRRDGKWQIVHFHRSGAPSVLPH
T13 sequence (P21860 20-1342): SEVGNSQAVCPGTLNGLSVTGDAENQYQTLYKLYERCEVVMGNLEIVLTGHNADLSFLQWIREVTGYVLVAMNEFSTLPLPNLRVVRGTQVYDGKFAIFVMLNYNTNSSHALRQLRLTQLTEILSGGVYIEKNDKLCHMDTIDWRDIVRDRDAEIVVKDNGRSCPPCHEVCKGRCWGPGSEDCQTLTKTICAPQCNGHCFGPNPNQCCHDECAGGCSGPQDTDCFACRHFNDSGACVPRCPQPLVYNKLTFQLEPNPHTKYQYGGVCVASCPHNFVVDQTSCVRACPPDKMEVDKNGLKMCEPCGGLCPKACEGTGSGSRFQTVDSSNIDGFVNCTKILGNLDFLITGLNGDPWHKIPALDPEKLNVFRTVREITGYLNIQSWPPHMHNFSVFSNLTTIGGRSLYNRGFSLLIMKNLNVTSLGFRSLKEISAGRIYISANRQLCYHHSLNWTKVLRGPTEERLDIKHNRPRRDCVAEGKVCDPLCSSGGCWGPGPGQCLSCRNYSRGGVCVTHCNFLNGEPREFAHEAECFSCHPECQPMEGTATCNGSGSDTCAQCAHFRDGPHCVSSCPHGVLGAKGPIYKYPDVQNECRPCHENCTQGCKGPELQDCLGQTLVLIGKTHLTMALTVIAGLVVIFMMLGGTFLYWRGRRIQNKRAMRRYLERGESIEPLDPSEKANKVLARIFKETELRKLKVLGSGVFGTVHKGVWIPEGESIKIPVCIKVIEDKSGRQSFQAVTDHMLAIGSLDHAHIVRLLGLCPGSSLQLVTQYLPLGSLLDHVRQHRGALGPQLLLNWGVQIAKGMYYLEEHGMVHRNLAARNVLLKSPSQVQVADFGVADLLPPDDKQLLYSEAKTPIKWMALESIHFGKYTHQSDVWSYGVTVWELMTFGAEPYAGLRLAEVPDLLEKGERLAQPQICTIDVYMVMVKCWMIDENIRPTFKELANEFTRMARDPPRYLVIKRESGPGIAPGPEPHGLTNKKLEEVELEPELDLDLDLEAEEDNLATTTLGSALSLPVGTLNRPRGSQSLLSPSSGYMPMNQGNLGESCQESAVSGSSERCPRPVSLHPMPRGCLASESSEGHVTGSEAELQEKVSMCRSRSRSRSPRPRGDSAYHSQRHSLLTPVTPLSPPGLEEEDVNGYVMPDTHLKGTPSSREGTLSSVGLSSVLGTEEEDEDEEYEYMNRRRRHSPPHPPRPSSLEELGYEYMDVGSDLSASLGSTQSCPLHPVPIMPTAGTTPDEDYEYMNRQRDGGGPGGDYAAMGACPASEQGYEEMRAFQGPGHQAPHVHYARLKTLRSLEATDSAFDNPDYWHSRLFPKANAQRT

With Cc1ccc(-n2cc(COc3cccc4cnc(Nc5cccc(Cl)c5)nc34)nn2)c([N+](=O)[O-])c1 [DB18] the remaining binding at 1 µM (CSNK2A2) was 61%, the remaining binding at 1 µM (SRPK2) was 87% and the remaining binding at 1 µM (PFTK1) was 100%. It also gave a remaining binding at 1 µM (ERK4) of 100%, a remaining binding at 1 µM (CAMK2A) of 96% and a remaining binding at 1 µM (KIT(D816V)) of 100%. It also gave a remaining binding at 1 µM (EGFR(L858R,T790M)) of 100%, a remaining binding at 1 µM (ANKK1) of 100% and a remaining binding at 1 µM (PFCDPK1(P.falciparum)) of 100%. For the same compound, the remaining binding at 1 µM (ITK) was 100%, the remaining binding at 1 µM (FLT3(N841I)) was 77% and the remaining binding at 1 µM (ACVR2B) was 100%. It also gave a remaining binding at 1 µM (ERBB3) of 99%, a remaining binding at 1 µM (VRK2) of 100% and a remaining binding at 1 µM (TGFBR2) of 100%. The remaining binding at 1 µM (PIP5K2C) was 28%, the remaining binding at 1 µM (HCK) was 100% and the remaining binding at 1 µM (BMPR1B) was 96%. The remaining binding at 1 µM (CDKL5) was 100%, the remaining binding at 1 µM (DDR1) was 100% and the remaining binding at 1 µM (ERBB4) was 100%. The remaining binding at 1 µM (GRK7) was 100%, the remaining binding at 1 µM (SIK2) was 100% and the remaining binding at 1 µM (CAMK1B) was 86%. For the same compound, the remaining binding at 1 µM (IRAK1) was 100%, the remaining binding at 1 µM (NEK10) was 100% and the remaining binding at 1 µM (EPHA7) was 100%. For the same compound, the remaining binding at 1 µM (SBK1) was 100%, the remaining binding at 1 µM (VPS34) was 100% and the remaining binding at 1 µM (AURKA) was 100%. The remaining binding at 1 µM (CDK9) was 100%, the “Percent Control” value (EGFR(L747-T751del,Sins)) was 100 % Ctrl and the remaining binding at 1 µM (LTK) was 80%. For the same compound, the remaining binding at 1 µM (ULK3) was 100%, the remaining binding at 1 µM (PIP5K1C) was 100% and the remaining binding at 1 µM (MEK1) was 97%. The remaining binding at 1 µM (EPHA4) was 88%, the remaining binding at 1 µM (GSK3A) was 100% and the remaining binding at 1 µM (DCAMKL3) was 100%. For the same compound, the remaining binding at 1 µM [1] was 100%, the remaining binding at 1 µM (EGFR(L858R)) was 94% and the remaining binding at 1 µM (MAP4K4) was 100%. It also gave a remaining binding at 1 µM (FLT3) of 84%.

Reference: paper PMC9571063 (Molecules, 2022)
